US7772271B2 (priority 2004, dated 2010)
Like-named read-outs stand apart in the source and are kept apart here.

Columns and labels:
PV IRES = experiment: cells; assay type: cell-based, poliovirus
wild-type poliovirus = assay type: cell-based
[1] = Enterovirus C, HEK-293T, 20 h, read-out: WTPV mono luc IC50 (μM)
[2] = 1 μM compound, Hela cells infected with wild-type poliovirus at MOI 0.1, treated for one day, CPE score
[3] = 10 μM compound, Hela cells infected with wild-type poliovirus at MOI 0.1, treated for one day, CPE score
[4] = 100 μM compound, Hela cells infected with wild-type poliovirus at MOI 0.1, treated for one day, CPE score

## COc1ccc(-n2cc(C#N)c3ccc(OC)cc32)cc1 [compound 4]
PV IRES; read-out: WTPV mono luc IC50
  IC50: 0.8 µM
wild-type poliovirus
  WT-PV CPE (1 μM)*: 1
  WT-PV CPE (10 μM)*: 2
  WT-PV CPE (100 μM)*: 3

## CCn1cc(C#N)c2ccc(OC)cc21 [compound 5, 1-ethyl-6-methoxy-1H-indole-3-carbonitrile]
PV IRES; [1]
  IC50: 9 µM
wild-type poliovirus; [2]
  WT-PV CPE (1 μM)*: 1
wild-type poliovirus; [3]
  WT-PV CPE (10 μM)*: 2
wild-type poliovirus; [4]
  WT-PV CPE (100 μM)*: 3

## CCOc1ccc2c(C#N)cn(CC)c2c1 [compound 9, 6-ethoxy-1-ethyl-1H-indole-3-carbonitrile]
PV IRES; [1]
  IC50: > 100 µM
wild-type poliovirus; [2]
  WT-PV CPE (1 μM)*: 2
wild-type poliovirus; [3]
  WT-PV CPE (10 μM)*: 2
wild-type poliovirus; [4]
  WT-PV CPE (100 μM)*: 3

## CCn1cc(C#N)c2ccc(OC(C)C)cc21 [compound 10]
PV IRES; read-out: WTPV mono luc IC50
  IC50: > 100 µM
wild-type poliovirus
  WT-PV CPE (1 μM)*: 2
  WT-PV CPE (10 μM)*: 2
  WT-PV CPE (100 μM)*: 3

## CCn1c(-c2ccc(OC)cc2)c(C#N)c2ccc(OC)cc21 [compound 19]
PV IRES; read-out: WTPV mono luc IC50
  IC50: 15 µM
wild-type poliovirus
  WT-PV CPE (1 μM)*: 1
  WT-PV CPE (10 μM)*: 2
  WT-PV CPE (100 μM)*: 3

## COc1ccc2c(C#N)c(C)n(-c3ccc4c(c3)OCO4)c2c1 [compound 24]
PV IRES; read-out: WTPV mono luc IC50
  IC50: 1.5 µM
wild-type poliovirus
  WT-PV CPE (1 μM)*: 2
  WT-PV CPE (10 μM)*: 2
  WT-PV CPE (100 μM)*: 3

## CCOc1ccc2c(C#N)c(-c3ccc(N(CC)C(=O)NC4CCCC4)cc3)n(C3CCC3)c2c1 [compound 1425, 1-[4-(3-cyano-1-cyclobutyl-6-ethoxy-1H-indol-2-yl)-phenyl]-3-cyclopenyl-1-ethyl-urea]
other
  melting point: 153 to 160 °C

## CC(C)OC(=O)Nc1ccc(-c2c(C#N)c3ccc(OCCC4COC(C)(C)O4)cc3n2C2CCC2)cc1 (stereo not shown) [compound 1428, (4-{3-cyano-1-cyclobutyl-6-[2-(2,2-dimethyl-[1,3]dioxolan-4-yl)-ethoxy]-1H-indol-2-yl}-phenyl)-carbamic acid isopropyl ester]
other
  melting point: 141 to 145 °C

## CC(C)OC(=O)Nc1ccc(-c2c(C#N)c3ccc(OCCC(O)CO)cc3n2C2CCC2)cc1 (stereo not shown) [compound 1429, {4-[3-cyano-1-cyclobutyl-6-(3,4-dihydroxy-butoxy)-1H-indol-2-yl]-phenyl}-carbamic acid isopropyl ester]
other
  melting point: 132 to 134 °C

## CCOc1ccc2c(C#N)c(-c3ccc(NCCc4ccccn4)cc3)n(C3CCC3)c2c1 [compound 1433, 1-cyclobutyl-6-ethoxy-2-[4-(2-pyridin-2-yl-ethylamino)-phenyl]-1H-indole-3-carbonitrile]
other
  melting point: 153 to 156 °C

## CC(OC(=O)Nc1ccc(-c2c(C#N)c3ccc(OC4CCCO4)cc3n2C2CC2)cc1)C1CC1 (stereo not shown) [compound 1444, {4-[3-cyano-1-cyclopropyl-6-(tetrahydrofuran-2-yloxy)indol-2-yl]phenyl}carbamic acid 1-cyclopropylethyl ester]
other
  melting point: 189 to 191 °C

## CC(C)OC(=O)Nc1ccc(-c2c(C#N)c3ccc(OC4CCOCC4)cc3n2C2CCC2)cc1 [compound 2616, {4-[3-cyano-1-cyclobutyl-6-(tetrahydro-pyran-4-yloxy)-1H-indole-2-yl]-phenyl}-carbamic acid isopropyl ester]
other
  melting point: 197 to 199 °C

## CCOc1ccc2c(I)c(-c3ccc(NC(=O)OC(C)C)cc3)n(CC3CC3)c2c1 [compound 2634, [4-(1-cyclopropylmethyl-6-ethoxy-3-iodo-1H-indol-2-yl)-phenyl]-carbamic acid isopropyl ester]
other
  melting point: 135 to 140 °C

## CCOc1ccc2c(C#CC3CC3)c(-c3ccc(NC(=O)OC(C)C)cc3)n(CC3CC3)c2c1 [compound 2635, [4-(3-cyclopropylethynyl-1-cyclopropylmethyl-6-ethoxy-1H-indol-2-yl)-phenyl]-carbamic acid isopropyl ester]
other
  melting point: 175 to 180 °C

## CCOc1ccc2c(F)c(-c3ccc(NC(=O)OC(C)C)cc3)n(CC3CC3)c2c1 [compound 2640, [4-(1-Cyclopropylmethyl-6-ethoxy-3-fluoro-1H-indol-2-yl)-phenyl]-carbamic acid isopropyl ester]
other
  melting point: 178 to 184 °C

## CCOc1ccc2c(Br)c(-c3ccc(NC(=O)OC(C)C)cc3)n(CC3CC3)c2c1 [compound 2691, [4-(3-bromo-1-cyclopropylmethyl-6-ethoxy-1H-indol-2-yl)-phenyl]-carbamic acid isopropyl ester]
other
  melting point: 128 to 132 °C

## CC(OC(=O)Nc1ccc(-c2c(C#N)c3ccc(OCCS(C)(=O)=O)cc3n2C2CCC2)cc1)C1CC1 (stereo not shown) [compound 2695, {4-[3-Cyano-1-cyclobutyl-6-(2-methanesulfonyl-ethoxy)-1H-indol-2-yl]-phenyl}-carbamic acid 1-cyclopropyl-ethyl ester]
other
  melting point: 135 to 140 °C

## CCSc1ccc2c(C#N)c(-c3ccc(NC(=O)O[C@H](C)C4CC4)cc3)n(C3CCC3)c2c1 [compound 2720, (R)-[4-(3-cyano-1-cyclobutyl-6-ethylsulfanyl-1H-indol-2-yl)-phenyl]-carbamic acid 1-cyclopropyl-ethyl ester]
other
  melting point: 120 to 122 °C

## CC(C)OC(=O)Nc1ccc(-c2c(C#N)c3ccc(N4CCOCC4)cc3n2C2CCC2)cc1 [compound 2800, [4-(3-cyano-1-cyclobutyl-6-morpholin-4-yl-1H-indol-2-yl)-phenyl]-carbamic acid isopropyl ester]
other
  melting point: 206 to 208 °C

## COc1ccc2c(Cl)c(-c3ccc(NC(=O)OC(C)C)cc3)n(CC3CC3)c2c1 [compound 2804, [4-(3-chloro-1-cyclopropylmethyl-6-methoxy-1H-indol-2-yl)-phenyl]-carbamic acid isopropyl ester]
other
  melting point: 171 to 177 °C

## CC(OC(=O)Nc1ccc(-c2cc3ccc(Oc4ncccn4)cc3n2C2CCC2)cc1)C(F)(F)F (stereo not shown) [compound 2888, {4-[1-cyclobutyl-6-(pyrimidin-2-yloxy)-1H-indole-2-yl]-phenyl}-carbamic acid 2,2,2-trifluoro-1-methyl-ethyl ester]
other
  melting point: 99 to 101 °C

## C[C@@H](OC(=O)Nc1ccc(-c2c(C#N)c3ccc(OCS(C)(=O)=O)cc3n2C2CCC2)cc1)C1CC1 [compound 2988, (R)-[4-(3-cyano-1-cyclobutyl-6-methanesulfonylmethoxy-1H-indol-2-yl)-phenyl]-carbamic acid 1-cyclopropyl-ethyl ester]
other
  melting point: 218 to 223 °C

## Cc1csc(Nc2ccc(-c3c(C#N)c4ccc(Oc5ncccn5)cc4n3C3CCC3)cc2)n1 [compound 3180, 1-cyclobutyl-2-[4-(4-methyl-thiazol-2-ylamino)-phenyl]-6-(pyrimidin-2-yloxy)-1H-indole-3-carbonitrile]
other
  melting point: 223 to 225 °C

## CC(C)OC(=O)Nc1ccc(-c2c(C#N)c3ccc(OC4CCS(=O)(=O)CC4)cc3n2C2CCC2)cc1 [compound 3182, {4-[3-cyano-1-cyclobutyl-6-(1,1-dioxo-hexahydro-1λ^6-thiopyran-4-yloxy)-1H-indol-2-yl]-phenyl}-carbamic acid isopropyl ester]
other
  melting point: 245 to 249 °C

## Cc1cc(Nc2ccc(-c3c(C#N)c4ccc(Oc5ncccn5)cc4n3C3CCC3)cc2)n(C)n1 [compound 3285, 1-cyclobutyl-2-[4-(2,5-dimethyl-2H-pyrazol-3-ylamino)-phenyl]-6-(pyrimidin-2-yloxy)-1H-indole-3-carbonitrile]
other
  melting point: 236 to 238 °C
